# From US20140314663A1, “PEPTIDE-MEDIATED DELIVERY OF ACTIVE AGENTS ACROSS THE BLOOD-BRAIN BARRIER” (MAYO FOUNDATION FOR MEDICAL EDUCATION AND RESEARCH, priority 2011, published 2014)
# Legend:
# BBB [1] = assay: Comparison of delivery of EB to the brain by K16ApoE and K26ApoE; type: in vivo; settings: for EB dye in brain: EB 10 min later, brain collected 1 h after EB
# Method: This experiment was carried out to evaluate if lengthening the lysine-chain will have any effect on the delivery of small molecules to the brain. ˜40 μL of 2% EB was injected 10 min after injection of various amounts of K16ApoE (75 μg, 100 μg, 150 μg, 250 μg, and 300 μg) or K26ApoE (25 μg, 50 μg, 75 μg, 100 μg, 125 μg, and 150 μg). K26ApoE (SEQ ID NO: 139) having the sequence: Brain tissue as was collected 1 h following EB injection. All injections were at the femoral vein.
# [2] = test system: brains, lungs, heart, liver, spleen and kidney; assay: Tissue distribution of Evans Blue (EB) after delivery via K16ApoE; type: in vivo, mice
# Method: Mice were injected with various amounts of K16ApoE peptide (0 μg, 150 μg, 100 μg, 75 μg, 50 μg, 25 and μg) first. EB (40 μL of a 2% solution was injected 10 min after injection of the peptide. Tissues (brains, lungs, heart, liver, spleen and kidney) were collected 1 h after EB delivery. All injections were through the femoral vein.
# brain = assay: Residence time of EB dye in brain following transportation by the peptide; type: in vivo, mice
# Method: A series of mice were administered 300 μg of K16ApoE followed by administration of ˜40 μL 2% EB 10 min after administration of the peptide. As a control, only EB was injected, cardiac perfusion was done 6 hours after EB injection, followed by collection of brain. For all other mice, perfusion and collection of brains was performed 15 min, 30 min, 1 h, 2 h, 4 h, 6 h, 12, h, and 24 h following administration of EB.
# BBB [3] = assay: Length of time of BBB opening following administration of peptide; type: in vivo, mice
# Method: A series of mice were administered 300 μg of K16ApoE followed by administration of ˜40 μL 2% EB at various time points. As a control, only EB was injected, cardiac perfusion was done 6 hours after EB injection, followed by collection of brain. For the other images, 300 μg of K16ApoE was first injected, then EB was injected after 5 min, 10 min, 30 min, 1 h, 2 h and 4 h, respectively. Then, perfusion and collection of brain was done after 5 h 55 min, 5 h 50 min, 5 h 30 min, 5 h, 4 h and 2 h, respectively).
# BBB [4] = assay: Transportation of dyes of various molecular weights across the BBB (K16ApoE or K16ApoE+IgG); type: in vivo, mouse
# Method: (§1) To explore whether K16ApoE (SEQ. ID. NO: 42) compromises integrity of the BBB, the peptide was first injected by iv followed by injection of Evan's Blue (EB; a routinely used small molecule blue dye with a molecular weight of 960.81) by iv into the femoral vein of a mouse. Cardiac perfusion was performed and the brains of the mice were removed and evaluated approximately 2 hours following injection of the dye. As controls, a peptide consisting of 16 lysine residues (K16) and a 20-amino acid peptide comprising the LDLR-binding domain of ApoE (ApoE-FITC; (SEQ ID NO:13)), were used. The particulars of each administration are as follows: • 1) 67.5 nanomoles of K16 injected first, then ˜40 μL 2% EB was injected. • 2) Same as 1 but K16 and EB mixed prior to injection. • 3) 67.5 nanomoles of ApoE-FITC injected first, then ˜40 μL 2% EB was injected. • 4) Same as 3 but ApoE-FITC peptide and EB was mixed prior to injection. • 5) 67.5 nanomoles of K16ApoE injected first, then ˜40 μL 2% EB was injected. • 6) Same as 5 but K16ApoE peptide and EB was mixed first before injection.
# To evaluate delivery of molecules of various molecular weights across the blood brain barrier, the method of Example 1 was used with Evan's Blue (EB), MW 960.81 gmol; Crocein Scarlet, MW 584.54 g/mol; and Light green SF, MW 792.86 g/mol. […]
# BBB [5] = assay: EB transportation across the BBB as a function of the amount of K16ApoE administered; type: in vivo, mouse
# Method: as §1
# Using the method described in Example 1, various amounts of K16ApoE (SEQ. ID. NO: 42) was injected followed by administration of ˜40 μL 2% EB. […]
# BBB [6] = assay: Transportation of Evan's Blue (EB) dye across the BBB after iv injection of peptide; type: in vivo, mouse; settings: 67.5 nanomoles K16ApoE iv injected first, then ~40 μL 2% EB; brain evaluated ~2 hours after dye
# Method: as §1
# [7] = control: only EB injected, perfusion 6 hours after EB
compound,measurement,setting,value
KKKKKKKKKKKKKKKKKKKKKKKKKKLRVRLASHLRKLRKRLLRDA (KKKKKKKKKKKKKKKKKKKKKKKKKKLRVRLASHLRKLRKRLLRDA) [K26ApoE],EB dye in brain,BBB [1]; 25 μg of peptide,no dye was observed
same,EB dye in brain,BBB [1]; 50 μg of peptide,only a small amount of dye present
same,EB dye in brain,BBB [1]; 75 μg of peptide,Increasing EB is observed
same,effectiveness in delivering EB to the brain relative to K16ApoE,BBB [1]; K26ApoE vs K16ApoE,approximately two-fold
"Cc1cc(-c2ccc(/N=N/c3ccc4c(S(=O)(=O)O)cc(S(=O)(=O)O)c(N)c4c3O)c(C)c2)ccc1/N=N/c1ccc2c(S(=O)(=O)O)cc(S(=O)(=O)O)c(N)c2c1O [EB, Evan's Blue]",EB in brain,"[2]; EB 10 min after 0-150 μg K16ApoE, tissues collected 1 h after EB",goes into brain only after injection of the peptide
same,EB stain of tissues,[2]; EB injected after K16ApoE injection,"Kidney, spleen and liver are stained with EB"
same,EB stain of tissues,[2]; EB injected without K16ApoE,"Kidney, spleen, liver and heart show some EB-stain"
same,time after administration up to which dye remains intense (retained well) in brain,brain; EB 10 min after 300 μg K16ApoE,up to 4 h
same,time post EB administration at which dye is first observed in brain,brain; EB 10 min after 300 μg K16ApoE,15 min
same,"time after administration up to which dye is still observed, less intensely, in brain","brain; EB 10 min after 300 μg K16ApoE, longest time point tested",up to 24 hours
same,EB dye in brain,brain; [7],no dye is observed
same,EB dye in brain,BBB [3]; [7],no dye was observed
KKKKKKKKKKKKKKKKLRVRLASHLRKLRKRLLRDA (KKKKKKKKKKKKKKKKLRVRLASHLRKLRKRLLRDA) [K16ApoE],amount of K16ApoE giving best EB entry into brain,"[2]; EB 10 min after peptide, tissues collected 1 h after EB",150 µg
same,transport of dye to the brain,"BBB [4]; 300 μg K16ApoE (alone or + 300 μg IgG) injected first, then dye (EB, Crocein Scarlet, Light green SF; ~40 μL 2%)",allowed transport of molecules of various sizes to the brain
same,transport of dye to the brain,BBB [4]; 300 μg K16ApoE mixed with dye (~40 μL 2%) prior to injection,does not appear to cross the BBB
same,EB dye in brain,"BBB [3]; EB injected 5 min, 10 min, 30 min after 300 μg K16ApoE",observed
same,EB dye in brain,BBB [3]; EB injected 1 h and 2 h after 300 μg K16ApoE,decreased intensity of dye observed
same,EB dye in brain,BBB [3]; EB injected 4 h after 300 μg K16ApoE,little to no EB dye remaining
same,EB dye in brain,BBB [1]; 75 μg of peptide,no dye was observed
same,EB dye in brain,BBB [1]; 100 μg of peptide,only a small amount of dye present
same,EB dye in brain,BBB [1]; 150 μg of peptide and above,Increasing EB is observed
same,EB dye observed in the brain,"BBB [5]; increasing amounts of K16ApoE (100, 200, 300 μg) injected before ~40 μL 2% EB",increasing amount of EB dye present in the brain
same,EB dye observed in the brain,BBB [5]; less than 100 μg K16ApoE injected before ~40 μL 2% EB,no dye is observed
same,EB dye transported to the brain (blue coloring of brain),BBB [6],crosses the BBB and is transported to the brain
